As usually defined, the IC50 is the concentration needed to halve the response being measured.

In this experiment the test system is Aβ42 production. Nature of the experiment: Quantification of Aβ peptide in culture of neurons from rat fetus brain (Aβ42 ELISA). Conditions: Neuron, 72 h, rat primary neuronal culture (embryonic day 18 Wistar rat cerebral cortex), medium collected three days after addition of compound, read-out: Aβ42 production reducing effect IC50. Type of experiment: cell-based. In short, it runs like this: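 Primary cortical neurons from E18 Wistar rat embryos, cultured 4 days in Neurobasal/B27/2-ME, then treated 3 days with compound in Neurobasal/B27 (final DMSO 1% or less; DMSO control). Conditioned medium collected; Aβx-42 measured undiluted by sandwich ELISA kit.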
(In general: ELISA stands for enzyme-linked immunosorbent assay.)
Regarding `NC1=N[C@@]2(c3cc(NC(=O)c4ccc(C(F)(F)F)cn4)ccc3F)COC[C@@H](F)[C@H]2CS1` [Example 19, N-[3-((4aS,5S,8aS)-2-amino-5-fluoro-4,4a,5,6-tetrahydro-7-oxa-3-thia-1-azanaphthalen-8a-yl)-4-fluorophenyl]-5-trifluoromethylpyridine-2-carboxamide], the IC50 came out at 2 nM. For the compound `NC1=N[C@@]2(c3cc(NC(=O)c4ccc(Cl)cn4)ccc3OC(F)(F)F)COCC[C@H]2CS1` (single isomer, unassigned) [Example 5, N-[3-((8S*,8aS*)-2-amino-4,4a,5,6-tetrahydro-7-oxa-3-thia-1-azanaphthalen-8a-yl)-4-trifluoromethoxyphenyl]-5-chloropyridine-2-carboxamide], the IC50 is 58 nM. As for `NC1=N[C@@]2(c3cc(NC(=O)c4cnc(C(F)F)cn4)ccc3F)COC[C@@H](F)[C@H]2CS1` [Example 17, N-[3-((4aS,5S,8aS)-2-amino-5-fluoro-4,4a,5,6-tetrahydro-7-oxa-3-thia-1-azanaphthalen-8a-yl)-4-fluorophenyl]-5-difluoromethylpyrazine-2-carboxamide], the figure is 4 nM. For `NC1=N[C@@]2(c3cc(NC(=O)c4ncc(Cl)cc4Cl)ccc3F)COCC[C@H]2CS1` (single isomer, unassigned) [Example 52, N-[3-((4aR*,8aS*)-2-amino-4,4a,5,6-tetrahydro-7-oxa-3-thia-1-azanaphthalen-8a-yl)-4-fluorophenyl]-3,5-dichloropyridine-2-carboxamide], the IC50 was 2 nM. For `NC1=N[C@@]2(c3cc(NC(=O)c4ccc(C(F)(F)F)cn4)ccc3F)CO[C@@H](CF)C[C@H]2CS1` [Example 46, N-[3-((4aR,6R,8aS)-2-amino-6-fluoromethyl-4,4a,5,6-tetrahydro-7-oxa-3-thia-1-azanaphthalen-8a-yl)-4-fluorophenyl]-5-trifluoromethylpyridine-2-carboxamide], the IC50 turned out to be 1 nM. As for `C[C@@H]1COC[C@]2(c3cc(NC(=O)c4ccc(Cl)cn4)ccc3F)N=C(N)SC[C@H]12` (relative stereo) [Example 23, N-[3-((4aR*,5S*,8aS*)-2-amino-5-methyl-4,4a,5,6-tetrahydro-7-oxa-3-thia-1-azanaphthalen-8a-yl)-4-fluorophenyl]-5-chloropyridine-2-carboxamide], the figure is 12 nM. The figure for `N#Cc1ccc(C(=O)Nc2ccc(F)c([C@]34COCC[C@H]3CSC(N)=N4)c2)nc1` (relative stereo) [Example 1, N-[3-((4aR*,8aS*)-2-amino-4,4a,5,6-tetrahydro-7-oxa-3-thia-1-azanaphthalen-8a-yl)-4-fluorophenyl]-5-cyanopyridine-2-carboxamide] is 1.7 nM; for `NC1=N[C@@]2(c3cc(NC(=O)c4ccc(C(F)(F)F)cn4)ccc3F)COCC[C@H]2CS1` (single isomer, unassigned) [Example 55, N-[3-((4aR*,8aS*)-2-amino-4,4a,5,6-tetrahydro-7-oxa-3-thia-1-azanaphthalen-8a-yl)-4-fluorophenyl]-5-trifluoromethylpyridine-2-carboxamide] it is 1.4 nM. The figure for `NC1=N[C@@]2(c3cc(-c4cccnc4F)ccc3F)CO[C@@H](COCc3ccccc3)C[C@H]2CS1` [Example 66, (4aR,6R,8aS)-8a-[2-fluoro-5-(2-fluoropyridin-3-yl)phenyl]-6-benzyloxymethyl-4,4a,5,6,8,8a-hexahydro-7-oxa-3-thia-1-azanaphthalen-2-ylamine] is 263 nM; for `N#Cc1ccc(C(=O)Nc2ccc(OC(F)(F)F)c([C@]34COCC[C@H]3CSC(N)=N4)c2)nc1` (single isomer, unassigned) [Example 4, N-[3-((4aR*,8aS*)-2-amino-4,4,5,6-tetrahydro-7-oxa-3-thia-1-azanaphthalen-8a-yl)-4-trifluoromethoxyphenyl]-5-cyanopyridine-2-carboxamide] it is 11 nM. With `NC1=N[C@@]2(c3cc(NC(=O)c4ccncn4)ccc3F)CO[C@@H](C(F)(F)F)C[C@H]2CS1` (relative stereo) [Example 40, N-[3-((4aR*,6R*,8aS*)-2-amino-6-trifluoromethyl-4,4a,5,6-tetrahydro-7-oxa-3-thia-1-azanaphthalen-8a-yl)-4-fluorophenyl]-pyrimidine-4-carboxamide], the IC50 stood at 2 nM. As for `C[C@H]1COC[C@]2(c3cc(NC(=O)c4cnc(C(F)F)cn4)ccc3F)N=C(N)SC[C@H]12` (relative stereo) [Example 29, N-[3-((4aR*,5R*,8aS*)-2-amino-5-methyl-4,4a,5,6-tetrahydro-7-oxa-3-thia-1-azanaphthalen-8a-yl)-4-fluorophenyl]-5-difluoromethylpyrazine-2-carboxamide], the figure is 3 nM.

Take `NC1=N[C@@]2(c3cc(NC(=O)c4ccc(C(F)F)cn4)ccc3F)COCC[C@H]2CS1` (single isomer, unassigned) [Example 56, N-[3-((4aR*,8aS*)-2-amino-4,4a,5,6-tetrahydro-7-oxa-3-thia-1-azanaphthalen-8a-yl)-4-fluorophenyl]-5-difluoromethylpyridine-2-carboxamide]: the IC50 was found to be 3 nM. As for `COC[C@H]1C[C@H]2CSC(N)=N[C@@]2(c2cc(NC(=O)c3ccc(C#N)cn3)ccc2F)CO1` (relative stereo) [Example 11, N-[3-((4aR*,6R*,8aS*)-2-amino-6-methoxymethyl-4,4a,5,6-tetrahydro-7-oxa-3-thia-1-azanaphthalen-8a-yl)-4-fluorophenyl]-5-cyanopyridine-2-carboxamide], the figure is 0.7 nM; as for `COC[C@H]1C[C@H]2CSC(N)=N[C@@]2(c2cc(NC(=O)c3ccc(Cl)cn3)ccc2F)CO1` (relative stereo) [Example 13, N-[3-((4aR*,6R*,8aS*)-2-amino-6-methoxymethyl-4,4a,5,6-tetrahydro-7-oxa-3-thia-1-azanaphthalen-8a-yl)-4-fluorophenyl]-5-chloropyridine-2-carboxamide], 1 nM.

Source of the values: US20110207723A1, “NOVEL FUSED AMINODIHYDROTHIAZINE DERIVATIVE” (EISAI R&D MANAGEMENT CO., LTD., priority 2008, published 2011).
